From patent US9708267B2, “Activators of human pyruvate kinase” (The United States of America, as represented by the …, priority 2010, dated 2017)
Read-outs that look alike come from different tables or passages of the source.

Target: hPK, M2 (Homo sapiens, UniProt P14618)
Experiment: luminescent pyruvate kinase-luciferase coupled assay (qHTS)
Format: biochemical
Conditions: for AC50: 0.1 mM ADP, 0.5 mM PEP; for Emax: maximum response (activation), read-out: Max. Res.; for activation at 57 µM: % activation at 57 μM of compound, read-out: hPK, M2 Max. Res.
Method: AC50 values were determined utilizing the luminescent pyruvate kinase-luciferase coupled assay (Inglese, J. et al, Quantitative high-throughput screening: a titration-based approach that efficiently identifies biological activities in large chemical libraries. Proc. Natl. Acad. Sci. U.S.A. 2006, 103, 11473-11478).
Luminescent Pyruvate Kinase-Luciferase Coupled Assay.
Production of a luminescent signal based on the generation of ATP by pyruvate kinase was determined by using the ATP-dependent enzyme firefly luciferase. Three μL of substrate mix (at r.t.) in assay buffer (50 mM imidazole pH 7.2, 50 mM KCl, 7 mM MgCl2, 0.01% tween 20, 0.05% BSA) was dispensed into Kalypsys (San Diego, Calif., USA) white solid bottom 1,536 well microtiter plates using a bottle-valve solenoid-based dispenser (Kalypsys). The final concentrations of substrates in the assay were 0.1 mM ADP and 0.5 mM PEP. Twenty-three nL of compound in DMSO were delivered with a 1,536-pin array tool, and 1 μL of enzyme mix in assay buffer (final concentration, 0.1 nM pyruvate kinase, 50 mM imidazole pH 7.2, 0.05% BSA, 4° C.) was added. Microtiter plates were incubated at r.t. for 1 hour and 2 uL of luciferase detection mix (Kinase-Glo from Promega, Madison, Wis., USA) at 4° C. protected from light, was added and luminescence was read with a ViewLux (Perkin Elmer, Waltham, Mass., USA) using a 2 second exposure/plate (with 2× binning). The final concentration of DMSO was 0.5% and found not to affect the assay signal.
Data was normalized for AC50 values to control columns containing uninhibited enzyme (n), and AC100 inhibition (i) according the following equation: Activation (%)=[(c−n)/(n−i)]*100 where c=compound, n=DMSO neutral, i=no enzyme control. A % activity of 100% is approximately a 2-fold increase over basal assay signal (% Activation by FBP was variable but averaged 100%). Monitoring of activation was accomplished using enzyme at 3× the final concentration.
All compounds were screened using a qHTS approach, where compounds are assayed using at least seven concentrations to generate concentration-response curves for every compounds. Briefly, qHTS uses an inter-plate dilution method where the first plate contains the highest concentration of a set of compounds in DMSO, while subsequent plates contain the same compounds in the same well locations, but at successive lower concentrations. Using the protocol outlined above, the rate was calculated as a plate throughput of 18 plates/hr or approximately 7 samples/sec on the Kalypsys robotic system which means that a 7 point CRC was obtained every second on the robotic system.

[1] = Table 3, mean of three replicate experiments, read-out: hPK, M2 AC50
[2] = Table 3, mean of three replicate experiments
[3] = Table 2, mean of three replicate experiments, read-out: hPK, M2 AC50
[4] = Table 2, mean of three replicate experiments
[5] = Table 1, mean of three replicate experiments, read-out: hPK, M2 AC50
[6] = Table 1, mean of three replicate experiments

Sequence of hPK, M2 (P14618 whole entry): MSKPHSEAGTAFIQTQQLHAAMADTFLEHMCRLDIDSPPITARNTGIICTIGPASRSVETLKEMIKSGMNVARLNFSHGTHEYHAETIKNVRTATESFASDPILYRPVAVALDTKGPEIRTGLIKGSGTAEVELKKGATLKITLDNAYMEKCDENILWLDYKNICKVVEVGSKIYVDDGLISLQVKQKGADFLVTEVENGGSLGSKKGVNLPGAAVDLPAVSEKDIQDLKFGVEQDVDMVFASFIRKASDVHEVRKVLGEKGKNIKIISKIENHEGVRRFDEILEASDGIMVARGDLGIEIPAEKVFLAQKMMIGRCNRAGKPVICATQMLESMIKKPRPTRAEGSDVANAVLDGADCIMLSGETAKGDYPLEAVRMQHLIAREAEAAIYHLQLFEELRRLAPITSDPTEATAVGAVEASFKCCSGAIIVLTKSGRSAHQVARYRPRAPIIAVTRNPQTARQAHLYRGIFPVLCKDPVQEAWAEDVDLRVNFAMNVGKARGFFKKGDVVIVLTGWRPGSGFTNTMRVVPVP

Structure (SMILES) | AC50 (Table 4, read-out: AC50) [nM] | Emax (Table 4) [%] | AC50 [3] [nM] | activation at 57 µM [4] [%] | further results
Cc1ccc(NS(=O)(=O)c2cc3c(cc2NC(C)CO)NC(=O)CC3)cc1C (stereo not shown) [Compound 67, N-(3,4-dimethylphenyl)-7-(1-hydroxypropan-2-ylamino)-2-oxo-1,2,3,4-tetrahydroquinoline-6-sulfonamide] | 110 | 110 |  |  | 
Cc1ccc(NS(=O)(=O)c2cc3c(cc2N2CCCCC2)NC(=O)CC3)cc1C [Compound 34, N-(3,4-dimethylphenyl)-2-oxo-7-(piperidin-1-yl)-1,2,3,4-tetrahydroquinoline-6-sulfonamide] |  |  |  |  | AC50 [1]: 15000 nM; activation at 57 µM [2]: 57%
Cc1ccc(NS(=O)(=O)c2cc3c(cc2Cl)NC(=O)CO3)cc1C [Compound 37, 6-chloro-N-(3,4-dimethylphenyl)-3-oxo-3,4-dihydro-2H-benzo[b][1,4]oxazine-7-sulfonamide] |  |  |  |  | AC50 [1]: 580 nM; activation at 57 µM [2]: 95%
Cc1ccc(Cl)cc1NS(=O)(=O)c1cc2c(cc1F)NC(=O)CC2 [Compound 48, N-(5-chloro-2-methylphenyl)-7-fluoro-2-oxo-1,2,3,4-tetrahydroquinoline-6-sulfonamide] | 4610 | 94.6 |  |  | 
Cc1ccc(NS(=O)(=O)c2ccc3c(c2)NC(=O)CO3)cc1C [Compound 7, N-(3,4-dimethylphenyl)-3-oxo-3,4-dihydro-2H-benzo[b][1,4]oxazine-6-sulfonamide] |  |  |  |  | AC50 [5]: 20000 nM; activation at 57 µM [6]: 93%
Cc1ccc(NS(=O)(=O)c2cc3c(cc2N2CCC(N(C)C)C2)NC(=O)CC3)cc1C (stereo not shown) [Compound 63, 7-(3-(dimethylamino)pyrrolidin-1-yl)-N-(3,4-dimethylphenyl)-2-oxo-1,2,3,4-tetrahydroquinoline-6-sulfonamide] | 8190 | 102 |  |  | 
CCN(CC)c1cc2c(cc1S(=O)(=O)Nc1ccc(C)c(C)c1)CCC(=O)N2 [Compound 66, 7-(diethylamino)-N-(3,4-dimethylphenyl)-2-oxo-1,2,3,4-tetrahydroquinoline-6-sulfonamide] | 7240 | 111 |  |  | 
Cc1ccc(NS(=O)(=O)c2cc3c(cc2N[C@H](C)CO)NC(=O)CC3)cc1C [Compound 69, (R)—N-(3,4-dimethylphenyl)-7-(1-hydroxypropan-2-ylamino)-2-oxo-1,2,3,4-tetrahydroquinoline-6-sulfonamide] | 370 | 87.7 |  |  | 
Cc1ccc(NS(=O)(=O)c2cc3c(cc2N(C)CCN(C)C)NC(=O)CC3)cc1C [Compound 61, 7-((2-(dimethylamino)ethyl)(methyl)amino)-N-(3,4-dimethylphenyl)-2-oxo-1,2,3,4-tetrahydroquinoline-6-sulfonamide] | 5840 | 70.5 |  |  | 
CC(=O)N1c2ccc(S(=O)(=O)Nc3ccc(C)c(C)c3)cc2CC1C (stereo not shown) [Compound 47, 1-acetyl-N-(3,4-dimethylphenyl)-2-methylindoline-5-sulfonamide] | 18300 | 112 |  |  | 
Cc1ccc(NS(=O)(=O)c2ccc3c(c2)N(C)C(=O)CO3)cc1C [Compound 8, N-(3,4-dimethylphenyl)-4-methyl-3-oxo-3,4-dihydro-2H-benzo[b][1,4]oxazine-6-sulfonamide] |  |  |  |  | AC50 [5]: 920 nM; activation at 57 µM [6]: 120%
Cc1ccc(NS(=O)(=O)c2cc3c(cc2N(C)C)CCC(=O)N3)cc1C [Compound 36, 6-(dimethylamino)-N-(3,4-dimethylphenyl)-2-oxo-1,2,3,4-tetrahydroquinoline-7-sulfonamide] |  |  |  |  | AC50 [1]: 460 nM; activation at 57 µM [2]: 110%
Cc1ccc(NS(=O)(=O)c2cc3c(cc2NCCO)NC(=O)CC3)cc1C [Compound 70, N-(3,4-dimethylphenyl)-7-(2-hydroxyethylamino)-2-oxo-1,2,3,4-tetrahydroquinoline-6-su 1 fonamide] | 90 | 111 |  |  | 
Cc1ccc(NS(=O)(=O)c2ccc3c(c2)C(Cl)(Cl)C(=O)N3)cc1C [Compound 60, 3,3-dichloro-N-(3,4-dimethylphenyl)-2-oxoindoline-5-sulfonamide] | 10300 | 117 |  |  | 
Cc1cc(NS(=O)(=O)c2cc3c(cc2N[C@@H](C)CO)NC(=O)CC3)ccc1F [Compound 72, (S)—N-(4-fluoro-3-methylphenyl)-7-(1-hydroxypropan-2-ylamino)-2-oxo-1,2,3,4-tetrahydroquinoline-6-sulfonamide] | 270 | 99 |  |  | 
Cc1ccc(NS(=O)(=O)c2cc3c(cc2NCC(C)(C)O)NC(=O)CC3)cc1C [Compound 64, N-(3,4-dimethylphenyl)-7-(2-hydroxy-2-methylpropylamino)-2-oxo-1,2,3,4-tetrahydroquinoline-6-sulfonamide] | 1830 | 100 |  |  | 

Continued, in another order:

AC50 (Table 4, read-out: AC50) [nM] | Emax (Table 4) [%] | AC50 [3] [nM] | activation at 57 µM [4] [%] | Structure (SMILES) | further results
 |  | 23000 | 36 | O=C1CCc2cc(S(=O)(=O)Nc3cccnc3)ccc2N1 [Compound 19, 2-oxo-N-(pyridin-3-yl)-1,2,3,4-tetrahydroquinoline-6-sulfonamide] | 
120 | 102 |  |  | Cc1ccc(NS(=O)(=O)c2cc3c(cc2F)NC(=O)CC3)cc1Cl [Compound 51, N-(3-chloro-4-methylphenyl)-7-fluoro-2-oxo-1,2,3,4-tetrahydroquinoline-6-sulfonamide] | 
 |  | 36000 | 47 | COc1ccc(NS(=O)(=O)c2ccc3c(c2)CCC(=O)N3)cc1 [Compound 22, N-(4-methoxyphenyl)-2-oxo-1,2,3,4-tetrahydroquinoline-6-sulfonamide] | 
 |  | 14000 | 13 | O=C1CCc2cc(S(=O)(=O)Nc3cccc(-c4ccccc4)c3)ccc2N1 [Compound 18, N-(biphenyl-3-yl)-2-oxo-1,2,3,4-tetrahydroquinoline-6-sulfonamide] | 
410 | 96.5 |  |  | Cc1cc(NS(=O)(=O)c2ccc3c(c2)CCC(=O)N3)ccc1Cl [Compound 58, N-(4-chloro-3-methylphenyl)-2-oxo-1,2,3,4-tetrahydroquinoline-6-sulfonamide] | 
 |  | 1200 | 99 | Cc1cccc(NS(=O)(=O)c2ccc3c(c2)CCC(=O)N3)c1 [Compound 14, 2-oxo-N-m-tolyl-1,2,3,4-tetrahydroquinoline-6-sulfonamide] | 
 |  | 1800 | 93 | O=C1CCc2cc(S(=O)(=O)Nc3cccc(F)c3)ccc2N1 [Compound 16, N-(3-fluorophenyl)-2-oxo-1,2,3,4-tetrahydroquinoline-6-sulfonamide] | 
 |  | 650 | 100 | O=C1CCc2cc(S(=O)(=O)Nc3cccc(Cl)c3)ccc2N1 [Compound 13, N-(3-chlorophenyl)-2-oxo-1,2,3,4-tetrahydroquinoline-6-sulfonamide] | 
260 | 122 |  |  | Cc1ccc(NS(=O)(=O)c2ccc3c(c2)CCC(=O)N3)cc1Cl [Compound 43, N-(3-chloro-4-methylphenyl)-2-oxo-1,2,3,4-tetrahydroquinoline-6-sulfonamide] | 
 |  | 13000 | 96 | O=C1CCc2cc(S(=O)(=O)Nc3cccc(C(F)(F)F)c3)ccc2N1 [Compound 17, 2-oxo-N-(3-(trifluoromethyl)phenyl)-1,2,3,4-tetrahydroquinoline-6-sulfonamide] | 
460 | 131 |  |  | Cc1ccc(NS(=O)(=O)c2ccc3c(c2)CCC(=O)N3)cc1F [Compound 55, N-(3-fluoro-4-methylphenyl)-2-oxo-1,2,3,4-tetrahydroquinoline-6-sulfonamide] | 
 |  | 4100 | 110 | Cc1ccc(NS(=O)(=O)c2ccc3c(c2)CCC(=O)N3)cc1 [Compound 21, 2-oxo-N-p-tolyl-1,2,3,4-tetrahydroquinoline-6-sulfonamide] | 
 |  | 3200 | 91 | COc1cccc(NS(=O)(=O)c2ccc3c(c2)CCC(=O)N3)c1 [Compound 15, N-(3-methoxyphenyl)-2-oxo-1,2,3,4-tetrahydroquinoline-6-sulfonamide] | 
